# From US12208105B2, “Methods for attenuating graft-versus-host disease and opportunistic infections” (priority 2018, dated 2025)
# Read-outs that look alike come from different tables or passages of the source.
# Legend:
# [1] = target: T1, CCR7 (Homo sapiens, UniProt P32248); assay: HTS primary reporter assay, human CCR7; format: cell-based
# T1 sequence (P32248 25-378): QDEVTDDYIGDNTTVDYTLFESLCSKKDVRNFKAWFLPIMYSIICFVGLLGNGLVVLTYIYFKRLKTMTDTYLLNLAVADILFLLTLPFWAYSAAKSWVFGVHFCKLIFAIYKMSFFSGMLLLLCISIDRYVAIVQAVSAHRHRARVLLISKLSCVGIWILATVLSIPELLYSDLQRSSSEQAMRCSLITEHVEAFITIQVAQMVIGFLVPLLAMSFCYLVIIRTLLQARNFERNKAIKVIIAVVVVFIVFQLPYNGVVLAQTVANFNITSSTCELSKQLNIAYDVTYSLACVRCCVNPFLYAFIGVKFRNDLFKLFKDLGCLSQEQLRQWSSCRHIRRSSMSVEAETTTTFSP
# [2] = in vitro, previous reports; cited from earlier work
# [3] = system: donor Tcon accumulation; assay: Organ eGFP quantification (donor Tcon accumulation, anti-eGFP ELISA); format: in vivo, mouse
# [4] = system: donor (eGFP+) cells in the spleen; assay: Donor engraftment in host spleen by flow cytometry; format: in vivo, mouse; conditions: whole stem cell product incubated 15 μg/ml, transplant day +10
# Method: Purified Tcons and TCD BM cells were obtained from B6 donors transgenic for enhanced green fluorescent protein (eGFP^+) and were mixed together prior to being incubated with cosalane or DMSO. The cells were subsequently administered to irradiated B6D2 recipients and both bone marrow and Tcon engraftment then determined by flow cytometry within the host spleen on transplant day +10. Donor derived cells were distinguished from residual host cells by virtue of their eGFP positivity.
# [5] = system: B6 into B6D2 aGVHD model
# [6] = target: serum albumin (Homo sapiens, UniProt P02768); conditions: cited from earlier work
# [7] = system: Epstein Barr virus (EBV); format: cell-based, human
# [8] = target: T1, CCR7; assay: Trans-well chemotaxis assay, human H9 cells; format: cell-based; set-up: confirm that hits identified in the HTS were active against native CCR7; endogenous in cells; host or cells: H9 cells (human cutaneous T cell lymphoma line)
# Method: FIGS. 1A-1D show cosalane impairs CCR7 driven human and murine chemotaxis. (A, B) Chemotaxis media with or without CCL19 (A) or CCL21 (B) was added to the lower chambers of the chemotaxis device. Previously untreated H9 cells were then placed in the upper chambers of the device with or without cosalane at a concentration of 2 μM. The chamber was then placed at 37° C. for 3.5 hours and total H9 migration from each upper to lower chamber determined. (A) *P=0.048 for comparison between H9 cells/30 nM CCL19 and H9 cells/30 nM CCL19/2 μM cosalane by Student's t test. (B) P>0.05 for comparison between H9 cells/200 nM CCL21 and H9 cells/200 nM CCL21/2 μM cosalane. (C, D) Chemotaxis media with or without CCL19 (C) or CCL21 (D) was added to the lower chambers of the chemotaxis device. Previously untreated primary murine T cells were then placed in the upper chambers of the device with or without cosalane at a concentration of 2 μM. Total T cell migration from each upper to lower chamber was then determined. (C) *P=0.029. (D) *P<0.001.
# While useful from a screening perspective, our primary reporter assays for the HTS were not physiologic. As a result, it was important to confirm that hits identified in the HTS were active against native CCR7 and could block an actual function mediated by the receptor. For this, we used a well-described trans-well chemotaxis assay system using human H9 cells, a cutaneous T cell lymphoma line known to express high levels of CCR7 and to migrate in response to its ligands (Ott et al., J. Pharmacol. Toxicol. Meth. 51:105 (2005)). In addition, we utilized primary mouse, naïve (CD25^neg) T cells obtained from C57BL/6 mice. As depicted in FIG. 1A, human H9 cells placed in the upper chambers of the chemotaxis device readily migrated through the separating membrane when CCL19 was present in the lower chamber. […] Similarly, murine T cell chemotaxis was also impaired by cosalane in response to both CCL19 and CCL21 (FIGS. 1C-1D).
# To evaluate this possibility, human H9 cells were incubated with 10 mcg/ml (13 μM) of cosalane versus DMSO vehicle for one hour and then washed free of the compound. The cells were then placed into the chemotaxis chamber as was done in FIGS. 1A-1D. […] Similar experiments were performed with naïve primary mouse T cells.
# [9] = system: herpes simplex 1 and 2 and human cytomegalovirus; conditions: cited from earlier work
# [10] = system: human PBMC into NSG xenogeneic aGVHD system; assay: Xenogeneic aGVHD, human PBMC into NSG mice, cells incubated ex vivo; format: in vivo, mouse; set-up: survival times: dose or concentration left out as unconfirmed
# [11] = Cytotoxicity (Table 1); format: cell-based
# Text: Perhaps the most important goal of HSCT research is to separate the beneficial anti-tumor effects mediated by donor T cells from the deleterious GVHD responses that they are also capable of producing. […] Unfortunately, there were no drugs or therapeutic antibodies available for clinical use. As a result, we pursued our high throughput screening (HTS) effort to identify novel small molecule antagonists with anti-CCR7 activity. The initial drug discovery process identified cosalane as a CCR7 antagonist. A substantial amount of work has subsequently been done with the compound in an effort to prevent acute graft-versus-host disease in mouse bone marrow transplant models.
# [12] = target: T1, CCR7; conditions: cited from earlier work
# [13] = day +14, Tcons incubated 15 μg/ml
# [14] = BM plus Tcons incubated 15 μg/ml
# [15] = Tcons incubated 10 μg/ml (13 μM) in saline alone, one hour
# [16] = 10 mcg/ml (13 μM) one hour, then washed
# Chain of serum albumin (P02768 25-609): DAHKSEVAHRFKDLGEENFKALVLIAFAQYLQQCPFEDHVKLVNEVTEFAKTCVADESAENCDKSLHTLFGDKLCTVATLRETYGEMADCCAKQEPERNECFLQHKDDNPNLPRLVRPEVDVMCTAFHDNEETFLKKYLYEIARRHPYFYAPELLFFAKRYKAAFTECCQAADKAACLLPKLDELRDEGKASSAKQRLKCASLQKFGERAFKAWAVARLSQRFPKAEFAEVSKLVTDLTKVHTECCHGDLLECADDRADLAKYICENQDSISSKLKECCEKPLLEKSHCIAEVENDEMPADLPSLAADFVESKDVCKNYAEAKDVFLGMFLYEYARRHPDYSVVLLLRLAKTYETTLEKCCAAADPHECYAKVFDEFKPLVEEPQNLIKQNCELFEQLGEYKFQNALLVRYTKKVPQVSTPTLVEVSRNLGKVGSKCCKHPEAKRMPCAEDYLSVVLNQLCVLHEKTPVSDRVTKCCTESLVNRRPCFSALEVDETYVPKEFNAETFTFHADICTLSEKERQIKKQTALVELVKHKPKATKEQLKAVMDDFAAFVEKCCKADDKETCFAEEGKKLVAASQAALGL
smiles,measurement,setting,value
"CC(C)CCC[C@@H](C)[C@H]1CC[C@H]2[C@@H]3CC[C@H]4C[C@@H](CCC=C(c5cc(Cl)c(O)c(C(=O)O)c5)c5cc(Cl)c(O)c(C(=O)O)c5)CC[C@]4(C)[C@H]3CC[C@]12C [Cosalane, cosalane]",IC50,"[1]; ligand CCL19, read-out: Human CCR7 IC50 To CCL19",207 nM
same,IC50,"[1]; ligand CCL21, read-out: Human CCR7 IC50 To CCL21",2660 nM
same,therapeutic index,[2],> 100
same,"donor Tcon numbers within the spleen, ILN, and MLN","[3]; 36 hours after transplant, Tcons incubated 15 μg/ml",significant reduction in donor Tcon numbers
same,donor Tcon accumulation in secondary lymphoid tissues and aGVHD target organs,"[3]; day +7, Tcons incubated 15 μg/ml",no differences in donor Tcon accumulation
same,donor Tcon accumulation within host lymphoid sites,[3]; [13],no differences in donor Tcon accumulation
same,donor Tcons within the colon and liver,[3]; [13],significant reduction in donor Tcons
same,donor cell numbers in the spleen,[4],"did not produce any differences in donor monocyte, neutrophil, T cell, or B cell numbers"
same,"recipients surviving to the end of the study period, combined treatment",[5]; BM cells and Tcons incubated 15 μg/ml,100%
same,delayed bone marrow failure,[5]; [14],no clinical signs of delayed bone marrow failure
same,group surviving to the end of the study observation period,[5]; [14],90%
same,aGVHD scores,[5]; [15],reduced aGVHD scores
same,median survival times,[5]; [15],improved median survival times
same,aGVHD,[5]; Tcons incubated 10 μg/ml in saline plus 1% albumin,developed severe aGVHD similar to DMSO controls
same,"survival, isolated treatment of donor Tcons","[5]; Tcons incubated 15 μg/ml, BM DMSO",100%
same,"transplant outcomes, dose dependence","[5]; Tcons incubated 10, 20 or 30 μg/ml",improved transplant outcomes with increasing dosages
same,"aGVHD attenuation, whole stem product treated","[5]; mouse, in vivo",attenuate aGVHD at least as well as what was observed previously with the isolated treatment of Tcons alone
same,"outcomes, isolated treatment of donor BM cells alone","[5]; mouse, in vivo",did not significantly improve outcomes
same,albumin avidity,[6],high albumin avidity
same,"EBV infection, isolated pretreatment of target cells","[7]; 20 μg/ml pretreatment one hour, washed",reduced viral infection to a significant degree
same,"EBV infectivity, compound present throughout","[7]; 20 μg/ml, Raji cells, 48 hours",significantly limited EBV infectivity
same,H9 cell migration in response to CCL19,"[8]; 2 μM cosalane in upper chamber, 30 nM CCL19, 3.5 hours, vs DMSO",inhibited versus DMSO
same,H9 cell CCL21 driven chemotaxis,"[8]; 2 μM cosalane in upper chamber, 200 nM CCL21","reduced by cosalane, although this did not achieve statistical significance"
same,H9 chemotaxis in response to CCL19 after pretreatment alone,[8]; [16],significantly reduced
same,H9 chemotaxis in response to CCL21 after pretreatment alone,[8]; [16],significantly reduced
same,viral cytopathic effect induced by herpes viruses,[9],block viral cytopathic effect
same,survival,[10]; human PBMCs incubated 35 μg/ml,most recipients surviving to the end of the study period
same,survival times,[10]; human PBMCs incubated with cosalane,prolonged survival times
same,Cytotoxicity,[11],>50 (non-toxic) μM
same,activity against CCL19 versus CCL21,[12],approximately 10 fold
